Assays:
Format in all cases: biochemical
DENV2 NS2B-NS3 protease = DENV2 NS2B-NS3 protease (Dengue virus type 2, UniProt P14340); assay: In vitro DENV2 NS2B-NS3pro inhibition assay; conditions: compound 25 μM, protease 25 nM, absence of detergent (Figure 2)
WNV NS2B-NS3pro = WNV NS2B-NS3pro (West Nile virus, UniProt Q9Q6P4); assay: In vitro WNV NS2B-NS3pro inhibition assay; conditions: compound 25 μM, protease 28 nM, 0.1% CHAPS (Figure 3)
DENV2 NS2B-NS3pro = DENV2 NS2B-NS3pro (Dengue virus type 2, UniProt P14340); assay: Steady-state kinetics of 7n against DENV2 NS2B-NS3pro; conditions: 0.025 μM protease
Chain of DENV2 NS2B-NS3pro (P14340 1476-1653): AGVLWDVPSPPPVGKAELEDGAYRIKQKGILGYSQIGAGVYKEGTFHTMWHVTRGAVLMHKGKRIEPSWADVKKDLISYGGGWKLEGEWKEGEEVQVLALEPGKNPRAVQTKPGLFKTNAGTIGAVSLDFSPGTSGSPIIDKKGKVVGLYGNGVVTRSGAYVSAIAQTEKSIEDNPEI
Chain of DENV2 NS2B-NS3pro (P14340 1398-1437): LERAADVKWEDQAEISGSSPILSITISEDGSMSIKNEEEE

Chain of DENV2 NS2B-NS3 protease (P14340 1476-1653): as the sequence (P14340 1476-1653) above
Chain of DENV2 NS2B-NS3 protease (P14340 1398-1437): as the sequence (P14340 1398-1437) above
Chain of WNV NS2B-NS3pro (Q9Q6P4 1506-1683): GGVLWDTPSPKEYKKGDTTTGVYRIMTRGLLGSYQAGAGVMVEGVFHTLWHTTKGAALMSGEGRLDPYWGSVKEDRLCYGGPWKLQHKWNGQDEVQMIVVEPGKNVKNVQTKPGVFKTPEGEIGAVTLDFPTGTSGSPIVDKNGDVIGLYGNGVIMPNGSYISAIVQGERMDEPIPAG
Chain of WNV NS2B-NS3pro (Q9Q6P4 1428-1467): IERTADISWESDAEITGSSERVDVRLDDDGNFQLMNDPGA

Row | Compound | inhibitory activity toward DENV NS2B-NS3pro (in words) (DENV2 NS2B-NS3 protease) | inhibitory activity toward WNV NS2B-NS3pro (in words) (WNV NS2B-NS3pro) | Vmax (DENV2 NS2B-NS3pro; inhibitor [7n] 1 μM) [µM/min] | Vmax (DENV2 NS2B-NS3pro; inhibitor [7n] 2 μM) [µM/min] | Vmax (DENV2 NS2B-NS3pro; inhibitor [7n] 5 μM) [µM/min]
1 | O=C(Cn1sc2ccccc2c1=O)NCc1cn(CC(=O)Nc2ccc(Oc3ccccc3)cc2)nn1 [Compound 4l, N-((1-(2-Oxo-2-(4-phenoxyphenylamino)ethyl)-1H-1,2,3-triazol-4-yl)methyl)-2-(3-oxobenzo[d]isothiazol-2(3H)-yl)acetamide] | noteworthy inhibitory activity | weak inhibitory activity |  |  | 
2 | O=C(Cn1sc2ccccc2c1=O)Nc1cccc(OCc2cn(CC(=O)Nc3ccccc3Oc3ccccc3)nn2)c1 [Compound 7n, N-(3-((1-(2-Oxo-2-(2-phenoxyphenylamino)ethyl)-1H-1,2,3-triazol-4-yl)methoxy)phenyl)-2-(3-oxobenzo[d]isothiazol-2(3H)-yl)acetamide] |  |  | 0.1006 ± 0.0029 | 0.0978 ± 0.0020 | 0.0994 ± 0.0010
3 | Methyl 4-((4-((3-(2-(3-oxobenzo[d]isothiazol-2(3H)-yl)acetamido)phenoxy)methyl)-1H-1,2,3-triazol-1-yl)methyl)benzoate [Compound 7e] | noteworthy inhibitory activity |  |  |  | 
